Here are results for eight compounds from patent EP0183439B1, “Polycyclic compounds, their preparation and use and formulations containing them” (THE WELLCOME FOUNDATION LIMITED, priority 1984, dated 1986).

The nature of data set [1]: LD20 in the P388/0 test (toxicity in mice). The class given is in vivo. On the procedure:
(§1) CD2-F₁ mice, of the same sex, weighing within a 3 g range surrounding 20 g, are used for this test. Control and test animals are injected intraperitoneally with a suspension of 10⁶ viable P388/0 tumor cells on day 0. In each test several dose levels which bracket the LD₂₀ for the compound are evaluated; each dose level group contains 6 animals. The test compounds are prepared either in physiologic saline containing 0.05% Tween 80 or distilled water containing 5% dextrose and are administered intraperitoneally on days, 1, 5, and 9 relative to tumor implant.

The subject of another data set is P388/0 tumor cells. Description: Lymphocytic Leukemia P388/0 Test. Type of data set: in vivo, CD2-F₁ mice. The note with it: ratio of median survival time treated/control at optimal dose; i.p. days 1, 5, 9; 10⁶ P388/0 cells i.p. on day 0.
Excerpt: Methods for evaluating the antitumor activity of these compounds are essentially those used in the Tumor Panel by the Development Therapeutics Program, Division of Cancer Treatment, National Cancer Institute, A. Goldin, et al., Methods in Cancer Research, Vol. XVI, p. 165, Academic Press (1979). Some modifications, in dose level and schedule have been made to increase the testing efficiency.
as §1
Doses are on a mg/kg basis according to individual animals' body weights. The day of death for each animal is recorded, the median identified for each group and the ratios of median survival time for treated (T)/control (C) groups are calculated. The criterion for activity is T/C x 100 120%.

Where [2] appears, read: intraperitoneally on days 1, 5 and 9.

SMILES strings stand for the structures. Where a name gives a salt, the structure may show the parent alone.

For the compound `CC(CO)(CO)NCc1cccc2sc3ccccc3c12` [Example 1, 2-[(1-Dibenzothiophenylmethyl)amino]-2-methyl-1,3-propanediol hydrochloride], in data set [1] (mouse, in vivo, ip), the LD₂₀ was 240 mg/kg. Also, in the data set with P388/0 tumor cells, the “T/C x 100% (Exluding 30 Day Survivors)” value is on record as “+140%”.
`CC(CO)(CO)NCc1ccc2sc3ccccc3c2c1.Cl` [Example 2, 2-[(2-Dibenzothiophenylmethyl)amino]-2-methyl-1,3-propanediol hydrochloride] had an LD₂₀ in data set [1] (setting [2]) of 200 mg/kg. In addition, in the data set with P388/0 tumor cells, the “T/C x 100% (Exluding 30 Day Survivors)” value is “+130%”.
As for `CC(CO)(CO)NCc1cccc2c1sc1ccccc12.Cl` [Example 3, 2-[(4-Dibenzothiophenylmethyl)amino]-2-methyl-1,3-propanediol hydrochloride], the LD₂₀ in data set [1] (setting [2]) stood at 200 mg/kg. Also, the “T/C x 100% (Exluding 30 Day Survivors)” value with P388/0 tumor cells is reported as “+155%”.
For `CC(CO)(CO)NCc1cccc2oc3ccccc3c12` [Example 4B, 2-[(1-Dibenzofuranylmethyl)amino]-2-methyl-1,3-propanediol hydrochloride], in that order: 200 mg/kg and “+140%”.
Turning to `CC(CO)(CO)NCc1ccc2oc3ccccc3c2c1.Cl` [Example 5, 2-[(2-Dibenzofuranylmethyl)amino]-2-methyl-1,3-propanediol hydrochloride], the LD₂₀ in data set [1] (setting [2]) is 225 mg/kg. In addition, in the data set with P388/0 tumor cells, the “T/C x 100% (Exluding 30 Day Survivors)” value is given as “+120%”.
With `CC(CO)(CO)NCc1c2ccccc2cc2sccc12` [Example 6B, 2-[(Naphtho[2,3-b]thiophen-4-ylmethyl)amino]-2-methyl-1,3-propanediol hydrochloride 1/20 hydrate], the LD₂₀ in data set [1] (mouse, in vivo, ip) was 150 mg/kg. The “T/C x 100% (Exluding 30 Day Survivors)” value with P388/0 tumor cells was “+125%”.
In data set [1] (setting [2]), `CC(CO)(CO)NCc1cc2ccsc2c2ccccc12` [Example 10C, 2-Methyl-2-[(naphtho[1,2-b]thiophene-5-ylmethyl)amino]-1,3-propanediol] gave an LD₂₀ of 115 mg/kg. In addition, the “T/C x 100% (Exluding 30 Day Survivors)” value in the data set with P388/0 tumor cells was “+125%”.
For `CC(CO)(CO)NCc1c2ccccc2nc2ccccc12` [Example 13, 2-[(9-Acridinylmethyl)amino]-2-methyl-1,3-propanediol dihydochoride], the LD₂₀ in data set [1] (mouse, in vivo, ip) was determined as 540 mg/kg. Besides, the “T/C x 100% (Exluding 30 Day Survivors)” value in the data set on P388/0 tumor cells is on record as “+130%”.
